From patent US20080096894A1, “Anti-Bacterial Compounds” (ASTON UNIVERSITY, priority 2005, published 2008)

Assays:
Acinetobater spp. = test: activity against Acinetobacter spp.; type: cell-based; settings: Gram-negative bacterium
[1] = tested on: C. difficile (NCTC 11204 and thirty-two clinical isolates); test: Minimum Bactericidal Concentration (MBC) against C. difficile, 99.9% kill; type: cell-based, Clostridium difficile
Experimental: (§1) Compounds 4PYcq and 4PYOfi were screened against one NCTC strain and thirty-two clinical isolates of Clostridium difficile as described below.
(§2) The antimicrobial compounds were prepared by adding 5.12 mg of each compound to 1 ml of DMSO. From each solution 100 μl was then aseptically transferred into 1 ml of sterile distilled water to give a concentration of 512 μg/ml. 100 μl of each diluted compound was then added to the first well of a sterile 96-well microliter plate. Serial dilutions were performed to give a concentration range spanning from 0 to 512 μg/ml of each compound. The microtiter plate containing the antimicrobials was left to equilibrate in an anaerobic cabinet for 3 hours before the addition of C. difficile cells. An overnight culture of C. difficile (NCTC 11204) was standardized to an OD^600 of 0.04 (approximately 10^6 CFU/ml), using Wilkins Chalgren broth and was vortexed for 60 seconds to ensure there was a uniform suspension. 100 μl of standardized culture was then added to each well of the microtiter plate, containing the equilibrated antimicrobials. The final concentrations of the antimicrobials in the wells therefore ranged from […] and the concentration of the culture was 10^5 CFU/ml in each well. The microtiter plate was incubated at 37° C., for 48 hours under anaerobic conditions. The MIC was determined as the lowest concentration of antimicrobial agent inhibiting the total growth of C. difficile cells. After incubation, the total solution from each well was aseptically spread onto a separate Wilkins chalgren agar plate. Plates were incubated for 48 hours, at 37° C., under anaerobic conditions. The number of colonies on each plate was counted after incubation and the MBC was determined as the lowest concentration of the antimicrobial agent at which 99.9% of organisms in the original inoculum were killed.

[2] = tested on: C. difficile (NCTC 11204 and thirty-two clinical isolates); test: Minimum Inhibitory Concentration (MIC) against C. difficile, microtiter plate, anaerobic, 48 hours; type: cell-based, Clostridium difficile
Experimental: as §1, §2

Propionibacterium acnes = test: MIC against Propionibacterium acnes, microtitre double dilution in BHI; type: cell-based
Experimental: Compounds 4PYcq and 4PYOfi were screened against one NCTC stain and seven clinical isolates of Propionibacterium acnes as described below.
Bacterial strains of Propionibacterium acnes, stored on beads at −20° C., were plated onto Brain heart infusion (BHI) agar plates. The cultures were incubated anaerobically for 4 days at 37° C.
Bacterial suspensions were prepared by diluting bacterial suspensions with BHI to obtain bacterial concentrations approximately 2×10^6 cfu/ml.
The test antimicrobial compounds were prepared by diluting the compound with appropriate nutrient broth to obtain correct stock solution. 50 μl of BHI were aliquoted onto the wells of the round-bottomed microtitre plate. 50 μl of the antimicrobial compounds were added onto the wells in the first column of the plate and several serial double dilutions were performed along the wells on each row. Following the series of double dilutions of the test compound the bacterial suspension were added onto each well except on the last column which served as a negative control. The lowest concentration of the test compound which inhibited bacterial growth was regarded as MIC of the compound.

Salmonella arizonae = test: MIC, doubling dilution in 96-well microtitre plate; type: cell-based
Experimental: (§3) The compound was tested as follows. […] The wells were inoculated with organism ([…] of medium containing 10^6 cfu/mL) and the plates were incubated at 37° C. overnight. Where growth of organism occurred this was observed as a small button when viewed from underneath the plate. The MIC was determined as the lowest concentration inhibiting growth.

[3] = tested on: Klebsiella pneumoniae ATCC 33495; test: MIC, doubling dilution in 96-well microtitre plate; type: cell-based
Experimental: as §3

[4] = tested on: Staphylococcus epidermidis NCTC 11047; test: MIC, doubling dilution in 96-well microtitre plate; type: cell-based
Experimental: as §3

Salmonella banana = test: MIC, doubling dilution in 96-well microtitre plate; type: cell-based
Experimental: as §3

[5] = tested on: Proteus mirabilis NCTC 5887; test: MIC, doubling dilution in 96-well microtitre plate; type: cell-based
Experimental: as §3

Bacillus cereus = test: MIC, doubling dilution in 96-well microtitre plate; type: cell-based
Experimental: as §3

[6] = Clostridium difficile Isolate 1
[7] = Clostridium difficile Isolate 2
[8] = Clostridium difficile Isolate 3
[9] = Clostridium difficile Isolate 4
[10] = Clostridium difficile Isolate 5
[11] = Clostridium difficile Isolate 6
[12] = Clostridium difficile Isolate 7
[13] = Clostridium difficile Isolate 8
[14] = Clostridium difficile Isolate 9
[15] = Clostridium difficile Isolate 10
[16] = Clostridium difficile Isolate 11
[17] = Clostridium difficile Isolate 12
[18] = Clostridium difficile Isolate 13
[19] = Clostridium difficile Isolate 14
[20] = Clostridium difficile Isolate 15
[21] = Clostridium difficile Isolate 16
[22] = Clostridium difficile Isolate 17
[23] = Clostridium difficile Isolate 18
[24] = Clostridium difficile Isolate 19
[25] = Clostridium difficile Isolate 20
[26] = Clostridium difficile Isolate 21
[27] = Clostridium difficile Isolate 22
[28] = Clostridium difficile Isolate 23
[29] = Clostridium difficile Isolate 24
[30] = Clostridium difficile Isolate 25
[31] = Clostridium difficile Isolate 26
[32] = Clostridium difficile Isolate 27
[33] = Clostridium difficile Isolate 28
[34] = Clostridium difficile Isolate 29
[35] = Clostridium difficile Isolate 30
[36] = Clostridium difficile Isolate 31
[37] = Clostridium difficile Isolate 32
[38] = Clostridium difficile NCTC 11204

Question: What does the source list for `NC(=NN=Cc1ccc([N+](=O)[O-])o1)c1cc[n+]([O-])cc1` (mixture of isomers) [Compound 4PYOfi]?
Answer: activity against Acinetobater spp. (in words) (Acinetobater spp.): inactive; MBC [1, 6]: 32 to 64 µg/mL; MBC [1, 7]: 16 to 32 µg/mL; MBC [1, 8]: 8 to 16 µg/mL; MBC [1, 9]: 64 to 128 µg/mL; MBC [1, 10]: 2 to 4 µg/mL; MBC [1, 11]: 16 to 32 µg/mL; MBC [1, 12]: 32 to 64 µg/mL; MBC [1, 13]: 8 to 16 µg/mL; MBC [1, 14]: 128 to 256 µg/mL; MBC [1, 15]: 32 to 64 µg/mL; MBC [1, 16]: 4 to 8 µg/mL; MBC [1, 17]: 4 to 8 µg/mL; MBC [1, 18]: 128 to 256 µg/mL; MBC [1, 19]: 4 to 8 µg/mL; MBC [1, 20]: 8 to 16 µg/mL; MBC [1, 21]: 4 to 8 µg/mL; MBC [1, 22]: 2 to 4 µg/mL; MBC [1, 23]: 1 to 2 µg/mL; MBC [1, 24]: 16 to 32 µg/mL; MBC [1, 25]: 4 to 8 µg/mL; MBC [1, 26]: 16 to 32 µg/mL; MBC [1, 27]: 4 to 8 µg/mL; MBC [1, 28]: 2 to 4 µg/mL; MBC [1, 29]: 4 to 8 µg/mL; MBC [1, 30]: 8 to 16 µg/mL; MBC [1, 31]: 2 to 4 µg/mL; MBC [1, 32]: 16 to 32 µg/mL; MBC [1, 33]: 16 to 32 µg/mL; MBC [1, 34]: 8 to 16 µg/mL; MBC [1, 35]: 16 to 32 µg/mL; MBC [1, 36]: 8 to 16 µg/mL; MBC [1, 37]: 8 to 16 µg/mL; MBC [1, 38]: 2 to 4 µg/mL; MIC [2, 6]: 16 to 32 µg/mL; MIC [2, 7]: 4 to 8 µg/mL; MIC [2, 8]: 8 to 16 µg/mL; MIC [2, 9]: 64 to 128 µg/mL; MIC [2, 10]: 2 to 4 µg/mL; MIC [2, 11]: 16 to 32 µg/mL; MIC [2, 12]: 32 to 64 µg/mL; MIC [2, 13]: 2 to 4 µg/mL; MIC [2, 14]: 128 to 256 µg/mL; MIC [2, 15]: 32 to 64 µg/mL; MIC [2, 16]: 2 to 4 µg/mL; MIC [2, 17]: 2 to 4 µg/mL; MIC [2, 18]: 64 to 128 µg/mL; MIC [2, 19]: 2 to 4 µg/mL; MIC [2, 20]: 2 to 4 µg/mL; MIC [2, 21]: 2 to 4 µg/mL; MIC [2, 22]: 1 to 2 µg/mL; MIC [2, 23]: 1 to 2 µg/mL; MIC [2, 24]: 8 to 16 µg/mL; MIC [2, 25]: 2 to 4 µg/mL; MIC [2, 26]: 16 to 32 µg/mL; MIC [2, 27]: 4 to 8 µg/mL; MIC [2, 28]: 2 to 4 µg/mL; MIC [2, 29]: 4 to 8 µg/mL; MIC [2, 30]: 2 to 4 µg/mL; MIC [2, 31]: 2 to 4 µg/mL; MIC [2, 32]: 16 to 32 µg/mL; MIC [2, 33]: 16 to 32 µg/mL; MIC [2, 34]: 4 to 8 µg/mL; MIC [2, 35]: 16 to 32 µg/mL; MIC [2, 36]: 4 to 8 µg/mL; MIC [2, 37]: 4 to 8 µg/mL; MIC [2, 38]: 2 to 4 µg/mL; MIC (Propionibacterium acnes; P. acnes Isolate 1): 8 to 16 µg/mL; MIC (Propionibacterium acnes; P. acnes Isolate 2): 8 to 16 µg/mL; MIC (Propionibacterium acnes; P. acnes Isolate 3): 8 to 16 µg/mL; MIC (Propionibacterium acnes; P. acnes Isolate 4): 8 to 16 µg/mL; MIC (Propionibacterium acnes; P. acnes Isolate 5): 16 to 32 µg/mL; MIC (Propionibacterium acnes; P. acnes Isolate 6): 8 to 16 µg/mL; MIC (Propionibacterium acnes; P. acnes Isolate 7): 8 to 16 µg/mL; MIC (Propionibacterium acnes; P. acnes NCTC 737): 16 to 32 µg/mL; MIC (Salmonella arizonae): 16 to 32 µg/mL; MIC [3]: 32 to 64 µg/mL; MIC [4]: 2 to 4 µg/mL; MIC (Salmonella banana): 4 to 8 µg/mL; MIC [5]: 32 to 64 µg/mL; MIC (Bacillus cereus): 8 to 16 µg/mL
